Patent US8513232B2, “Substituted spirocyclic piperidine derivatives as histamine-3 (H3) receptor ligands” (Cephalon, Inc., priority 2008, dated 2013)
Read-outs that look alike come from different tables or passages of the source.

Columns and labels:
[1] = target: T1, rat histamine H3 receptor (Rattus norvegicus, UniProt Q9QYN8); assay: Rat H3 radioligand binding ([3H]-N-alpha-methylhistamine, SPA)
T1 construct: encoding the entire 445-amino-acid rat histamine H3 receptor; expressed in transfected cells; membrane preparation
T1 sequence (Q9QYN8 whole entry): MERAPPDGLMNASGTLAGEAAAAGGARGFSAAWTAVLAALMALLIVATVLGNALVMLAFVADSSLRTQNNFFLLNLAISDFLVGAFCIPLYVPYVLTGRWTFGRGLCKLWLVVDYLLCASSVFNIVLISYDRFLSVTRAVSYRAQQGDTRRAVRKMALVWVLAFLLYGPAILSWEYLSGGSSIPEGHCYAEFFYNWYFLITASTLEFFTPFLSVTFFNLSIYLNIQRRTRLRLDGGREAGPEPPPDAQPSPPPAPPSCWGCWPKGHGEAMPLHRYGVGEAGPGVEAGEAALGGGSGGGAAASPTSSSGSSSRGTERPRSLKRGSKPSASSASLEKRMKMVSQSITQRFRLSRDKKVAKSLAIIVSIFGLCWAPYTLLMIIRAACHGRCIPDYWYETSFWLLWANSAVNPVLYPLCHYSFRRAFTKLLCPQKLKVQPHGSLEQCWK
Summary of the method: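 SPA-bead binding assay using [3H]-N-alpha-methylhistamine (approximately 1 nM final) with test compounds from 0.01 nM to 30 μM. Rat H3 receptor membranes came from stably transfected CHO-A3 cells; incubation ran 4 h at room temperature, in the dark, in Tris pH 7.4 buffer with MgCl2 and BSA. Clobenpropit (10 μM) gave non-specific binding.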

human H3 receptor = target: T2, human H3 receptor (Homo sapiens, UniProt Q9Y5N1); assay: Human H3 radioligand binding ([3H]-N-alpha-methylhistamine, SPA)
T2 construct: expressed in transfected cells
T2 sequence (Q9Y5N1 whole entry): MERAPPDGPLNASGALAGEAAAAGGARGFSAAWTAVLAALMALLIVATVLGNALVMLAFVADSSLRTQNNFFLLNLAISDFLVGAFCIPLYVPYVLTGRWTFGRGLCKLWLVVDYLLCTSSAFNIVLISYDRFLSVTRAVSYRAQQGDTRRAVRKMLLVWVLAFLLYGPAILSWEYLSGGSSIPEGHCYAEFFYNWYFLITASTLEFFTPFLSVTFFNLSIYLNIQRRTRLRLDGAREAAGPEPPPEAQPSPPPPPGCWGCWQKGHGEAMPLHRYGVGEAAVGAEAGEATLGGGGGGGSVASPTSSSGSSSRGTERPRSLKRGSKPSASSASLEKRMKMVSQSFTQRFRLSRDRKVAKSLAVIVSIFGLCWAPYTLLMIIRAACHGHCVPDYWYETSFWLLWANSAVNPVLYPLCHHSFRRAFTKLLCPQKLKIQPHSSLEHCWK
Summary of the method: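 Compounds (0.01 nM-30 μM) competed with approximately 1 nM [3H]-N-alpha-methylhistamine for human H3 receptor in membranes of stably transfected CHO cells, 10 μg protein per well, in Tris-HCl pH 7.4/MgCl2/BSA buffer for 4 h at room temperature. Bound radioligand measured by scintillation proximity; 10 μM clobenpropit gave non-specific binding.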

[2] = rat H3 binding, Table D, read-out: Rat H3 Ki
[3] = human H3 binding, Table D, read-out: Human H3 Ki
[4] = Table C, rat H3 binding, read-out: Rat H3 Ki
[5] = Table C, human H3 binding, read-out: Human H3 Ki
[6] = Rat H3 binding, Table B, Examples 136-362, read-out: rat H3 binding Ki
[7] = Human H3 binding, Table B, Examples 136-362, read-out: hum H3 binding Ki
[8] = Table A, rat H3 binding, read-out: Rat Ki
[9] = Table A, human H3 binding, read-out: Human Ki

SMILES	Ki [1, 2] [nM]	melting point	Ki (human H3 receptor; [3]) [nM]	further results
NC(=O)c1ccc(-c2ccc3c(c2)COC2(CCN(C4CCC4)CC2)O3)c(Cl)c1 [Example 715]	< 200	112 to 114 °C	< 200	
O=c1ncc(Oc2ccc3c(c2)CCC2(CCN(C4CCC4)CC2)O3)c[nH]1 [Example 495]		259 to 261 °C		Ki ([1]; read-out: Rat H3 kI): < 200 nM; Ki (human H3 receptor; read-out: Human H3 Ki): < 200 nM
O=C(O)c1ccc(-c2ccc3c(c2)COC2(CCN(C4CCC4)CC2)O3)cc1 [Example 668]	< 200	236 to 237 °C	< 200	
O=C(NC1CCOCC1)c1ccc(-c2ccc3c(c2)COC2(CCN(C4CCC4)CC2)O3)cc1O [Example 705]	< 200	193 to 195 °C	< 200	
COCc1cc(-c2ccc3c(c2)COC2(CCN(C4CCC4)CC2)O3)cnc1OC [Example 804]	< 200	257 °C	< 200	
c1cc2c(cc1N1CCC3(CC1)OCCO3)CCC1(CCN(C3CCC3)CC1)O2 [Example 398]		135 to 137 °C		Ki [1, 4]: < 200 nM; Ki (human H3 receptor; [5]): < 200 nM
O=C(NCCO)c1ccc(-c2ccc3c(c2)COC2(CCN(C4CCC4)CC2)O3)cc1F [Example 163]		166 to 168 °C		Ki [1, 6]: < 200 nM; Ki (human H3 receptor; [7]): < 200 nM
O=c1ccc(-c2ccc3c(c2)COC2(CCN(CCC4CCOCC4)CC2)O3)c[nH]1 [Example 703]	> 1000	214 to 216 °C	200 to 1000	
COCCNC(=O)c1c(F)cc(-c2ccc3c(c2)COC2(CCN(C4CCC4)CC2)O3)cc1F [Example 262]		125 to 126.3 °C		Ki [1, 6]: < 200 nM; Ki (human H3 receptor; [7]): < 200 nM
Cc1cc(=O)n(C)cc1-c1ccc2c(c1)COC1(CCN(C3CCC3)CC1)O2 [Example 709]	< 200	151 to 154 °C	< 200	
Clc1ccc(N2CCN(c3ccc4c(c3)CCC3(CCN(C5CCC5)CC3)O4)CC2)nn1 [Example 389]		229 to 231 °C		Ki [1, 4]: < 200 nM; Ki (human H3 receptor; [5]): < 200 nM
c1cc2c(cc1C1CCOC1)COC1(CCN(C3CCC3)CC1)O2 (stereo not drawn) [Example 507]		249 to 250 °C		Ki ([1]; read-out: Rat H3 kI): < 200 nM; Ki (human H3 receptor; read-out: Human H3 Ki): < 200 nM
CS(=O)(=O)c1ccc(COc2ccc3c(c2)CCC2(CCN(C4CCC4)CC2)O3)cc1 [Example 617]	< 200	142 to 146 °C	< 200	
COc1ncc(Oc2ccc3c(c2)CCC2(CCN(C4CCC4)CC2)O3)cn1 [Example 503]		227 to 229 °C		Ki ([1]; read-out: Rat H3 kI): < 200 nM; Ki (human H3 receptor; read-out: Human H3 Ki): < 200 nM
OCc1ccc(-c2ccc3c(c2)COC2(CCN(C4CCC4)CC2)O3)s1 [Example 641]	< 200	168 to 169 °C	< 200	
COc1ncc(-c2ccc3c(c2)COC2(CCN(C4CCC4)CC2)O3)cc1C [Example 610]	< 200	142 to 145 °C	< 200	
O=S1(=O)CCC(C(O)c2ccc3c(c2)COC2(CCN(C4CCC4)CC2)O3)CC1 (stereo not drawn) [Example 511]		127 to 129 °C		Ki ([1]; read-out: Rat H3 kI): < 200 nM; Ki (human H3 receptor; read-out: Human H3 Ki): < 200 nM
CC(C)S(=O)(=O)C1CCN(c2ccc3c(c2)COC2(CCN(C4CCC4)CC2)O3)CC1 [Example 656]	< 200	142.6 to 145.1 °C	< 200	
c1cc2c(cc1OCC1CCSCC1)CCC1(CCN(C3CCC3)CC1)O2 [Example 499]		117 to 118 °C		Ki ([1]; read-out: Rat H3 kI): < 200 nM; Ki (human H3 receptor; read-out: Human H3 Ki): < 200 nM
CCc1cc(OC)ncc1-c1ccc2c(c1)COC1(CCN(C3CCC3)CC1)O2 [Example 802]	< 200	156 to 160 °C	< 200	
CNC(=O)c1ccc(-c2cc3c(cc2Cl)OC2(CCN(C4CCC4)CC2)OC3)cc1 [Example 266]		95 to 97 °C		Ki [1, 6]: < 200 nM; Ki (human H3 receptor; [7]): < 200 nM
Cn1cc2c(n1)CCN(c1ccc3c(c1)CCC1(CCN(C4CCC4)CC1)O3)C2 [Example 430]		132 to 134 °C		Ki [1, 4]: < 200 nM; Ki (human H3 receptor; [5]): < 200 nM
CCN(CC)C(=O)N1CCN(c2ccc3c(c2)COC2(CCN(C4CCC4)CC2)O3)CC1 [Example 351]		113 to 116.1 °C		Ki [1, 6]: < 200 nM; Ki (human H3 receptor; [7]): < 200 nM
c1ccc(CN2CCN(c3ccc4c(c3)CCC3(CCN(C5CCC5)CC3)O4)CC2)cc1 [Example 365]		292 to 293 °C		Ki [1, 4]: < 200 nM; Ki (human H3 receptor; [5]): < 200 nM
Cn1cc(-c2ccc3c(c2)COC2(CCN(C4CCC4)CC2)O3)c(CO)cc1=O [Example 770]	< 200	120 to 123 °C	< 200	

SMILES	Ki [1, 2] [nM]	melting point	Ki (human H3 receptor; [3]) [nM]	further results
Cn1cc(-c2ccc3c(c2)COC2(CCN(C4CCC4)CC2)O3)ccc1=O [Example 659]	< 200	170 to 173 °C	< 200	
c1cc2c(cc1N1CCCC1)CCC1(CCN(C3CCC3)CC1)O2 [Example 420]		> 275 °C (dec.)		Ki [1, 4]: < 200 nM; Ki (human H3 receptor; [5]): < 200 nM
CC(C)NS(=O)(=O)c1ccc(-c2ccc3c(c2)COC2(CCN(C4CCC4)CC2)O3)cc1 [Example 35]		85 to 90 °C		Ki [1, 8]: < 200 nM; Ki (human H3 receptor; [9]): < 200 nM
COc1ccc(-c2ccc3c(c2C)COC2(CCN(C4CCC4)CC2)O3)cn1 [Example 551]		231 to 232 °C		Ki ([1]; read-out: Rat H3 kI): < 200 nM; Ki (human H3 receptor; read-out: Human H3 Ki): < 200 nM
c1cc2c(cc1C1CCNCC1)CCC1(CCN(C3CCC3)CC1)O2 [Example 452]		88 to 90 °C		Ki ([1]; read-out: Rat H3 kI): < 200 nM; Ki (human H3 receptor; read-out: Human H3 Ki): < 200 nM
O=C(Nc1cccc(F)c1)Nc1ccc2c(c1)COC1(CCN(C3CCC3)CC1)O2 [Example 245]		227 to 228 °C		Ki [1, 6]: < 200 nM; Ki (human H3 receptor; [7]): < 200 nM
COCCNC(=O)c1ccc(-c2ccc3c(c2)CCC2(CCN(C4CCC4)CC2)O3)cn1 [Example 209]		218 to 219 °C		Ki [1, 6]: < 200 nM; Ki (human H3 receptor; [7]): < 200 nM
O=S1(=O)CCC(O)(c2ccc3c(c2)CCC2(CCN(C4CCC4)CC2)O3)CC1 [Example 535]		213 to 215 °C		Ki ([1]; read-out: Rat H3 kI): < 200 nM; Ki (human H3 receptor; read-out: Human H3 Ki): < 200 nM
O=c1ccc(-c2ccc3c(c2)COC2(CCN(C4CCC4)CC2)O3)cn1CC(F)F [Example 555]		65 to 70 °C		Ki ([1]; read-out: Rat H3 kI): < 200 nM; Ki (human H3 receptor; read-out: Human H3 Ki): < 200 nM
c1cc(-c2ccc3c(c2)CCC2(CCN(C4CCC4)CC2)O3)cs1 [Example 454]		110 to 112 °C		Ki ([1]; read-out: Rat H3 kI): < 200 nM; Ki (human H3 receptor; read-out: Human H3 Ki): < 200 nM
COCCNC(=O)c1ccc(-c2ccc3c(c2)CCC2(CCN(C4CCC4)CC2)O3)cc1 [Example 193]		158 to 160 °C		Ki [1, 6]: < 200 nM; Ki (human H3 receptor; [7]): < 200 nM
CC(C)S(=O)(=O)N1CCC(Oc2ccc3c(c2)CCC2(CCN(C4CCC4)CC2)O3)CC1 [Example 440]		233 to 235 °C		Ki [1]: < 200 nM; Ki (human H3 receptor): < 200 nM
CCNC(=O)N1CCN(c2ccc3c(n2)COC2(CCN(C4CCC4)CC2)O3)CC1 [Example 254]		122 to 124 °C		Ki [1, 6]: < 200 nM; Ki (human H3 receptor; [7]): < 200 nM
CC(C)NC(=O)c1ccc(-c2ccc3c(c2)COC2(CCN(C4CCC4)CC2)O3)cc1F [Example 356]		146.5 to 148 °C		Ki [1, 6]: < 200 nM; Ki (human H3 receptor; [7]): < 200 nM
O=c1ccc(C(O)c2ccc3c(c2)COC2(CCN(C4CCC4)CC2)O3)c[nH]1 (stereo not drawn) [Example 526]		217 to 219 °C		Ki ([1]; read-out: Rat H3 kI): < 200 nM; Ki (human H3 receptor; read-out: Human H3 Ki): < 200 nM
Cc1nnc(C2CCN(c3ccc4c(c3)COC3(CCN(C5CCC5)CC3)O4)CC2)o1 [Example 657]	< 200	75.5 to 77.8 °C	< 200	
OC1(c2ccc3c(c2)COC2(CCN(C4CCC4)CC2)O3)CCSCC1 [Example 465]		174 to 176 °C		Ki ([1]; read-out: Rat H3 kI): < 200 nM; Ki (human H3 receptor; read-out: Human H3 Ki): < 200 nM
O=c1ccc(-c2ccc3c(c2)COC2(CCN(C4CCC4)CC2)O3)cn1CC(F)(F)F [Example 710]	< 200	158 to 160 °C	< 200	
COCCN(C)C(=O)c1ccc(-c2ccc3c(c2)COC2(CCN(C4CCC4)CC2)O3)cc1Cl [Example 577]	< 200	105 to 107 °C	< 200	
CCOC(=O)c1ccc(NC(=O)Nc2ccc3c(c2)COC2(CCN(C4CCC4)CC2)O3)cc1 [Example 208]		188 to 189 °C		Ki [1, 6]: 200 to 1000 nM; Ki (human H3 receptor; [7]): < 200 nM
Cc1nnc(COc2ccc3c(c2)CCC2(CCN(C4CCC4)CC2)O3)o1 [Example 615]	< 200	97 to 98 °C	< 200	
NS(=O)(=O)c1ccc(-c2ccc3c(c2)COC2(CCN(C4CCC4)CC2)O3)cc1 [Example 48]		195 to 200 °C		Ki [1, 8]: < 200 nM; Ki (human H3 receptor; [9]): < 200 nM
c1ccn2ncc(-c3ccc4c(c3)COC3(CCN(C5CCC5)CC3)O4)c2c1 [Example 757]	< 200	158 to 160 °C	< 200	
COc1cc(-c2ccc3c(c2)COC2(CCN(C4CCC4)CC2)O3)cn(C)c1=O [Example 761]	< 200	70 to 72 °C	< 200	
